What all share (experiment): ≥ marks a high value that may be exact or a test limit, other limits are often not marked, values filed in µg/mL are converted to µM
Assay [1] relates to Staphylococcus epidermidis ATCC 12228.
Assay [2] relates to Bacillus subtilis PS832.
Assay [3] relates to Klebsiella aerogenes ATCC 13048.
Assay [4] concerns Escherichia coli DL7.
Assay [5] has as its system Staphylococcus epidermidis KCTC 1917.
Assay [6] relates to Pseudomonas aeruginosa CCARM 2095.
The test system of assay [7] is Staphylococcus aureus KCTC 3881.
Assay [8] deals with Escherichia coli KCTC 2571.
Assay [9] concerns Salmonella typhimurium CCARM 8007.
In assay [10] the test system is Pseudomonas aeruginosa KCTC 1637.
The test system of assay [11] is Acinetobacter baumannii CCARM 12037.
The subject of assay [12] is Staphylococcus aureus CCARM 3108.
Assay [13] relates to Staphylococcus aureus CCARM 3090.
Assay [14] concerns Bacillus subtilis KCTC 3068.
Assay [15] relates to Bacillus subtilis KCTC 1022.
For assay [16], the system named is Pseudomonas aeruginosa CCARM 2002.
The subject of assay [17] is Pseudomonas aeruginosa CCARM 2003.
Assay [18] concerns Escherichia coli KCTC 1682.
For assay [19], the system named is Staphylococcus aureus CCARM 3126.
Assay [20] has as its system Staphylococcus aureus KCTC 1916.
In assay [21] the test system is Escherichia coli KCTC 2593.
Assay [22] has as its system Pseudomonas aeruginosa KCTC 2004.
Assay [23] deals with Salmonella typhimurium CCARM 8003.
Assay [24] concerns Acinetobacter baumannii CCARM 12005.
Assay [25] concerns Acinetobacter baumannii CCARM 12036.
The test system of assay [26] is Escherichia coli CCARM 1238.
Assay [27] concerns Salmonella typhimurium KCTC 1926.
The subject of assay [28] is Bacillus subtilis KCTC 1021.
The test system of assay [29] is Staphylococcus aureus CCARM 3114.
The test system of assay [30] is Escherichia coli CCARM 1229.
The test system of assay [31] is Staphylococcus aureus CCARM 3089.
For assay [32], the system named is Pseudomonas aeruginosa KCTC 2513.
Assay [33] deals with Pseudomonas aeruginosa CCARM 2163.
Assay [34] relates to Acinetobacter baumannii CCARM 12035.
The test system of assay [35] is Salmonella typhimurium CCARM 8009.
Assay [36] concerns Staphylococcus aureus KCTC 1621.
Assay [37] deals with Staphylococcus sp. BCRC 10451.
In assay [38] the test system is Streptococcus agalactiae.
Assay [39] concerns Staphylococcus aureus BCRC 10780.
In assay [40] the test system is Vibrio harveyi BCRC 13812.
Assay [41] deals with Vibrio alginolyticus.
Assay [42] concerns Staphylococcus aureus ATCC 25023.
Assay [43] has as its system Micrococcus luteus ATCC 10240.
Assay [44] concerns Bacillus subtilis DSM 347.
Assay [45] concerns Escherichia coli DSM 10233.
The test system of assay [46] is Escherichia coli BL21AI.
Assay [47] concerns Micrococcus luteus DSM 1790.

Data on 5 molecules can be found in DBAASP.

Values after ≈ are worked out from the molar mass of the structure shown.

One may read the MIC as the lowest concentration that inhibits growth of the organism. A higher MIC goes with weaker potency. In the case of `CC(C)C[C@H](NC(=O)CNC(=O)[C@H](C)NC(=O)[C@H](CCCN=C(N)N)NC(=O)[C@H](Cc1cnc[nH]1)NC(=O)[C@H](C)NC(=O)[C@@H](N)CC(=O)O)C(=O)N[C@@H](CCC(N)=O)C(=O)N[C@@H](Cc1ccccc1)C(=O)N1CCC[C@H]1C(=O)N[C@H](C(=O)NCC(=O)N[C@@H](CCCN=C(N)N)C(=O)N[C@H](C(=O)N[C@@H](Cc1cnc[nH]1)C(=O)N[C@@H](CCCN=C(N)N)C(=O)N[C@@H](CC(C)C)C(=O)N[C@@H](CC(C)C)C(=O)N[C@@H](CCCN=C(N)N)C(=O)N[C@@H](CCCCN)C(N)=O)C(C)C)C(C)C` [DAHRAGLQFPVGRVHRLLRK], the MIC in [1] is 4 µM (≈ 9.3 µg/mL); in assay [2], 2 µM (≈ 4.65 µg/mL); in assay [3] it was no less than 32 µM; in [4] it was 16 µM (≈ 37.2 µg/mL).

Consider `CC[C@H](C)[C@H](NC(=O)CNC(=O)[C@H](CCCN=C(N)N)NC(=O)[C@H](Cc1ccccc1)NC(=O)[C@@H](NC(=O)[C@H](Cc1cnc[nH]1)NC(=O)[C@H](Cc1cnc[nH]1)NC(=O)[C@H](Cc1ccccc1)NC(=O)[C@@H](N)Cc1ccccc1)[C@@H](C)CC)C(=O)N[C@@H](CCCCN)C(=O)N[C@@H](Cc1cnc[nH]1)C(=O)N[C@H](C(=O)NCC(=O)N[C@@H](CCCCN)C(=O)N[C@H](C(=O)N[C@H](C(=O)N[C@@H](Cc1cnc[nH]1)C(=O)N[C@@H](CCCN=C(N)N)C(=O)N[C@@H](CC(C)C)C(=O)N[C@H](C(=O)N[C@H](C(=O)NCC(=O)O)[C@@H](C)O)C(C)C)[C@@H](C)CC)[C@@H](C)O)C(C)C` [FFHHIFRGIKHVGKTIHRLVTG], for which the minimum inhibitory concentration (MIC) is 1 µM (≈ 2.6 µg/mL) in [5]; 2 µM (≈ 5.2 µg/mL) in assay [6]; 1 µM (≈ 2.6 µg/mL) in [7]; 2 µM (≈ 5.2 µg/mL) in assay [8]; 4 µM (≈ 10.4 µg/mL) in assay [9]; 1 µM (≈ 2.6 µg/mL) in [10]. In addition, the MIC in assay [11] amounted to 2 µM (≈ 5.2 µg/mL); in assay [12] it was 4 µM (≈ 10.4 µg/mL); in [13], 8 µM (≈ 20.8 µg/mL); in assay [14], 1 µM (≈ 2.6 µg/mL); in [15], 2 µM (≈ 5.2 µg/mL); in assay [16], 2 µM (≈ 5.2 µg/mL). Besides, the minimal inhibitory concentration (MIC) in [17] amounted to 2 µM (≈ 5.2 µg/mL); in assay [18] it was 1 µM (≈ 2.6 µg/mL); in [19], 4 µM (≈ 10.4 µg/mL); in assay [20], 2 µM (≈ 5.2 µg/mL); in [21], 2 µM (≈ 5.2 µg/mL); in assay [22], 2 µM (≈ 5.2 µg/mL). The minimum inhibitory concentration (MIC) in [23] was found to be 8 µM (≈ 20.8 µg/mL); in [24], 2 µM (≈ 5.2 µg/mL); in assay [25], 2 µM (≈ 5.2 µg/mL); in assay [26], 4 µM (≈ 10.4 µg/mL); in [27] it was 1 µM (≈ 2.6 µg/mL); in assay [28] it was 4 µM (≈ 10.4 µg/mL). Further, the MIC in assay [29] came to 4 µM (≈ 10.4 µg/mL); in assay [30], 4 µM (≈ 10.4 µg/mL); in assay [31], 8 µM (≈ 20.8 µg/mL); in assay [32] it was 2 µM (≈ 5.2 µg/mL); in [33], 2 µM (≈ 5.2 µg/mL); in assay [34] it was 2 µM (≈ 5.2 µg/mL). Also, the MIC in [35] was 4 µM (≈ 10.4 µg/mL); in assay [36], 1 µM (≈ 2.6 µg/mL).

Turning to `CC[C@H](C)[C@H](NC(=O)[C@H](Cc1ccccc1)NC(C)=O)C(=O)N[C@@H](Cc1ccccc1)C(=O)N[C@@H](Cc1cnc[nH]1)C(=O)N[C@H](C(=O)N[C@H](C(=O)N[C@@H](CCCCN)C(=O)NCC(=O)N[C@@H](CC(C)C)C(=O)N[C@@H](Cc1ccccc1)C(=O)N[C@@H](Cc1cnc[nH]1)C(N)=O)[C@@H](C)CC)[C@@H](C)CC` [FIFHIIKGLFH], the minimum inhibitory concentration (MIC) in assay [37] was no less than 72.9 µM; in assay [38] it was no less than 72.9 µM; in [39] it was 4.56 µM (≈ 6.44 µg/mL); in [40], 4.56 µM (≈ 6.44 µg/mL); in [41] it was 4.56 µM (≈ 6.44 µg/mL).

Consider `CC(C)C[C@H](NC(=O)[C@H](CCCN=C(N)N)NC(=O)[C@H](CC(C)C)NC(=O)[C@H](CC(C)C)NC(=O)[C@H](CC(C)C)NC(=O)[C@H](CC(C)C)NC(=O)[C@H](CCCCN)NC(=O)[C@H](CC(C)C)NC(=O)[C@@H](N)CCCN=C(N)N)C(N)=O` [RLKLLLLRL], for which the MIC in [42] stood at 14.1 µM (≈ 16 µg/mL).

On to `CC[C@H](C)[C@H](NC(=O)[C@H](CCCN=C(N)N)NC(=O)[C@H](CCCN=C(N)N)NC(=O)[C@@H]1CCCN1C(=O)[C@@H]1CCCN1C(=O)[C@H](CCCN=C(N)N)NC(=O)[C@@H]1CCCN1C(=O)[C@H](CCCN=C(N)N)NC(=O)[C@@H]1CCCN1C(=O)[C@H](CC(C)C)NC(=O)[C@H](Cc1ccc(O)cc1)NC(=O)[C@@H]1CCCN1C(=O)[C@@H]1CCCN1C(=O)[C@H](CCCCN)NC(=O)[C@H](CC(=O)O)NC(=O)[C@@H](N)C(C)C)C(=O)N[C@@H](Cc1ccc(O)cc1)C(=O)N[C@@H](CC(N)=O)C(=O)O` [VDKPPYLPRPRPPRRIYN], for which the minimal inhibitory concentration (MIC) in [43] is no less than 57.3 µM; in [44], no less than 55.9 µM; in [45], no less than 55.9 µM; in assay [46] it was 28.6 µM (≈ 64 µg/mL); in assay [47], 6.98 µM (≈ 15.6 µg/mL).
